Results reported in ChEMBL document CHEMBL3525932, “Comparison of metabolism of sesamin and episesamin by drug-metabolizing enzymes in human liver” (Drug Metab Dispos, 2012).

Assays:
[1] = target: T1, Cytochrome P450 2C19 (Homo sapiens, UniProt P33261); assay: Activity of recombinant human CYP2C19 expressed in Saccharomyces cerevisiae AH22 cells assessed as enzyme-mediated compound formation treated with episesamin at 2 to 75 uM after 15 mins by HPLC analysis in presence of NADPH; assay type: ADME, cell-based; conditions: ah22, 0.25 h
T1 sequence (P33261 whole entry): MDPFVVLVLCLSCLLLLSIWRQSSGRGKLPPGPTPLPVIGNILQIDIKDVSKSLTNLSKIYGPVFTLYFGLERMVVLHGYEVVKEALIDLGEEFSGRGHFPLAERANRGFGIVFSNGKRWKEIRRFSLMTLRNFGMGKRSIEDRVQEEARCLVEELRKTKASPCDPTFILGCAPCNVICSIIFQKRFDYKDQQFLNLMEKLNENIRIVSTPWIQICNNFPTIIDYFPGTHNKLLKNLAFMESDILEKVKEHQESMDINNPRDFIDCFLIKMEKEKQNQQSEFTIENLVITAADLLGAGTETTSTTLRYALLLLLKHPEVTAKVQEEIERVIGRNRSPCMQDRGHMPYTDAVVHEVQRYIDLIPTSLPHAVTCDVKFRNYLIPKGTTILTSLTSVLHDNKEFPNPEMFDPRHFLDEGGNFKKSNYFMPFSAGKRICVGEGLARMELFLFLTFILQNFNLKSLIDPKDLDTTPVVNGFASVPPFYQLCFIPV

[2] = target: T2, Cytochrome P450 2C9 (Homo sapiens, UniProt P11712); assay: Activity of recombinant human CYP2C9 expressed in Saccharomyces cerevisiae AH22 cells assessed as enzyme-mediated compound formation treated with (S)-episesamin monocatechol at 1 to 30 uM after 15 mins by HPLC analysis in presence of NADPH; assay type: ADME, cell-based; conditions: ah22, 0.25 h
T2 sequence (P11712 whole entry): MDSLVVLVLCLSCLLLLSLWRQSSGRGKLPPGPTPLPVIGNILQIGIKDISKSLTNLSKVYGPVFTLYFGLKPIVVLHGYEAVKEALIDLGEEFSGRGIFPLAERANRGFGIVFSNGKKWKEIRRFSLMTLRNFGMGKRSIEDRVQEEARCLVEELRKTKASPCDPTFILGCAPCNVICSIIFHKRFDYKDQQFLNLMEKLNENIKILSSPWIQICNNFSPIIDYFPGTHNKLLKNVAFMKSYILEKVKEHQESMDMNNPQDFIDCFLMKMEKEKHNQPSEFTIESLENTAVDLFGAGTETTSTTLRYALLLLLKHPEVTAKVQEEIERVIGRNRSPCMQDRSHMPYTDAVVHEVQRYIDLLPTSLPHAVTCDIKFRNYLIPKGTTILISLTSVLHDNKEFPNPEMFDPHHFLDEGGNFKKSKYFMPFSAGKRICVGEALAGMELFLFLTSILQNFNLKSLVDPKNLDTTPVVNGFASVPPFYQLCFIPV

[3] = target: T2, Cytochrome P450 2C9; assay: Activity of recombinant human CYP2C9 expressed in Saccharomyces cerevisiae AH22 cells assessed as enzyme-mediated compound formation treated with (R)-episesamin monocatechol at 1 to 30 uM after 15 mins by HPLC analysis in presence of NADPH; assay type: ADME, cell-based; conditions: ah22, 0.25 h
[4] = target: T3, Cytochrome P450 1A2 (Homo sapiens, UniProt P05177); assay: Activity of recombinant human CYP1A2 expressed in Saccharomyces cerevisiae AH22 cells assessed as enzyme-mediated compound formation treated with (R)-episesamin monocatechol at 1 to 30 uM after 15 mins by HPLC analysis in presence of NADPH; assay type: ADME, cell-based; conditions: ah22, 0.25 h
T3 sequence (P05177 whole entry): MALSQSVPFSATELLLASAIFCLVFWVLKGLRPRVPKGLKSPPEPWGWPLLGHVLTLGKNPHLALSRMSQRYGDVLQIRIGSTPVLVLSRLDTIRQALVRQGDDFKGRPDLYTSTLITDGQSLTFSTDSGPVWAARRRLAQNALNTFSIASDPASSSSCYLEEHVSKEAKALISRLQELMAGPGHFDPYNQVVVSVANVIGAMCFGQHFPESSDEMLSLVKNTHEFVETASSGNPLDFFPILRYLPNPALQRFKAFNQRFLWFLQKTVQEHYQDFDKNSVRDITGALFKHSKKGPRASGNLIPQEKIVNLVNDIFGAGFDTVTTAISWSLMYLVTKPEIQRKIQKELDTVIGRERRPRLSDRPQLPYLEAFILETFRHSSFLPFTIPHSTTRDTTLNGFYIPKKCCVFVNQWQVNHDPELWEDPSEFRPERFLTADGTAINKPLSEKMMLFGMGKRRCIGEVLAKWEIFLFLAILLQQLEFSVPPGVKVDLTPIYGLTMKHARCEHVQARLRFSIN

[5] = target: T3, Cytochrome P450 1A2; assay: Activity of recombinant human CYP1A2 expressed in Saccharomyces cerevisiae AH22 cells assessed as enzyme-mediated compound formation treated with (S)-episesamin monocatechol at 1 to 30 uM after 15 mins by HPLC analysis in presence of NADPH; assay type: ADME, cell-based; conditions: ah22, 0.25 h
[6] = target: T1, Cytochrome P450 2C19; assay: Activity of recombinant human CYP2C19 expressed in Saccharomyces cerevisiae AH22 cells assessed as enzyme-mediated compound formation treated with sesamin at 2 to 20 uM after 15 mins by HPLC analysis in presence of NADPH; assay type: ADME, cell-based; conditions: ah22, 0.25 h
[7] = test system: Liver microsome; assay: Drug level in human liver microsomes treated with episesamin at 5 uM after 30 mins by HPLC analysis in presence of NADPH; assay type: ADME; conditions: 0.5 h
[8] = target: T1, Cytochrome P450 2C19; assay: Activity of recombinant human CYP2C19 expressed in Saccharomyces cerevisiae AH22 cells assessed as enzyme-mediated episesamin dicatechol formation after 15 mins by HPLC analysis in presence of NADPH; assay type: ADME, cell-based; conditions: ah22, 0.25 h
[9] = target: T2, Cytochrome P450 2C9; assay: Activity of recombinant human CYP2C9 expressed in Saccharomyces cerevisiae AH22 cells assessed as enzyme-mediated episesamin dicatechol formation after 15 mins by HPLC analysis in presence of NADPH; assay type: ADME, cell-based; conditions: ah22, 0.25 h
[10] = target: T3, Cytochrome P450 1A2; assay: Activity of recombinant human CYP1A2 expressed in Saccharomyces cerevisiae AH22 cells assessed as enzyme-mediated episesamin dicatechol formation after 15 mins by HPLC analysis in presence of NADPH; assay type: ADME, cell-based; conditions: ah22, 0.25 h
[11] = target: T4, UDP-glucuronosyltransferase 2B7 (Homo sapiens, UniProt P16662); assay: Activity of recombinant human UGT2B7 expressed in baculovirus infected insect cells assessed as enzyme-mediated glucuronidation at 1 to 30 uM after 10 to 30 mins by HPLC analysis in presence of UDP-GlcUA; assay type: ADME
T4 sequence (P16662 whole entry): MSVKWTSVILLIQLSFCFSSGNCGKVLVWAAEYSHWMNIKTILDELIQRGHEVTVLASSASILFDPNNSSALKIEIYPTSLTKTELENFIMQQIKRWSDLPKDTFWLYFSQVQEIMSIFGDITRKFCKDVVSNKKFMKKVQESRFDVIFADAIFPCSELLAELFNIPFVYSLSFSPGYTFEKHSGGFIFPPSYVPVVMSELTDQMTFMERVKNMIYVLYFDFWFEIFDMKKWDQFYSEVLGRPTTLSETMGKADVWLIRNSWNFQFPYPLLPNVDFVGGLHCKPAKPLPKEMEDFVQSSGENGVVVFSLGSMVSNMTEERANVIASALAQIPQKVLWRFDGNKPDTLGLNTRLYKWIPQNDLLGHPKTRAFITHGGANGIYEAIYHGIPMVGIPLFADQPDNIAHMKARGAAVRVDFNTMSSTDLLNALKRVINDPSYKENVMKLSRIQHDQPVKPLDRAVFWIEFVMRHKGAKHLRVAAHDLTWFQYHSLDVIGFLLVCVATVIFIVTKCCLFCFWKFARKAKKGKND

[12] = test system: Liver microsome; assay: Drug level in human liver microsomes treated with episesamin at 2 to 75 uM after 15 mins by HPLC analysis in presence of NADPH; assay type: ADME; conditions: 0.25 h
[13] = test system: CYP450; assay: Drug metabolism in human liver microsomes assessed as CYP450-mediated catecholization after 10 to 30 mins by HPLC analysis in presence of NADPH; assay type: ADME
[14] = test system: UGT; assay: Drug metabolism in human liver microsomes assessed as UGT-mediated glucuronidation after 10 to 30 mins by HPLC analysis in presence of UDP-GlcUA; assay type: ADME
[15] = Drug metabolism in human liver microsomes assessed as UGT-mediated glucuronidation per mg of protein after 10 to 30 mins by HPLC analysis in presence of UDP-GlcUA; assay type: ADME
[16] = Drug metabolism in human liver microsomes assessed as CYP450-mediated catecholization per mg of protein after 10 to 30 mins by HPLC analysis in presence of NADPH; assay type: ADME
[17] = test system: CYP450; assay: Drug metabolism in Sprague-Dawley rat liver microsomes assessed as CYP450-mediated catecholization after 10 to 30 mins by HPLC analysis in presence of NADPH; assay type: ADME
[18] = Drug metabolism in Sprague-Dawley rat liver microsomes assessed as CYP450-mediated catecholization per mg of protein after 10 to 30 mins by HPLC analysis in presence of NADPH; assay type: ADME
[19] = Drug metabolism in Sprague-Dawley rat liver microsomes assessed as UGT-mediated glucuronidation per mg of protein after 10 to 30 mins by HPLC analysis in presence of UDP-GlcUA; assay type: ADME
[20] = test system: UGT; assay: Drug metabolism in Sprague-Dawley rat liver microsomes assessed as UGT-mediated glucuronidation after 10 to 30 mins by HPLC analysis in presence of UDP-GlcUA; assay type: ADME
[21] = target: T3, Cytochrome P450 1A2; assay: Activity of recombinant human CYP1A2 expressed in Saccharomyces cerevisiae AH22 cells assessed as enzyme-mediated compound formation treated with episesamin at 2 to 75 uM after 15 mins by HPLC analysis in presence of NADPH; assay type: ADME, cell-based; conditions: ah22, 0.25 h
[22] = target: T2, Cytochrome P450 2C9; assay: Activity of recombinant human CYP2C9 expressed in Saccharomyces cerevisiae AH22 cells assessed as enzyme-mediated compound formation treated with episesamin at 2 to 75 uM after 15 mins by HPLC analysis in presence of NADPH; assay type: ADME, cell-based; conditions: ah22, 0.25 h

SMILES | Drug metabolism [1] | Drug metabolism [7] | Drug metabolism [8] | Drug metabolism [9] | Drug metabolism [10] | Drug metabolism [11] | Drug metabolism [12] | Km [13] | Km [14] | Vmax [15] | Vmax [16] | Km [17] | Vmax [19] | Km [20] | also measured
Oc1ccc([C@H]2OC[C@H]3[C@@H]2CO[C@H]3c2ccc(O)c(O)c2)cc1O | metabolite_detected |  |  |  |  |  |  |  |  |  |  |  |  |  | Drug metabolism [2]: metabolite_detected; Drug metabolism [3]: metabolite_detected; Drug metabolism [4]: metabolite_detected; Drug metabolism [5]: metabolite_detected
Oc1ccc([C@H]2OC[C@H]3[C@@H]2CO[C@@H]3c2ccc(O)c(O)c2)cc1O |  |  |  |  |  |  |  |  |  |  |  |  |  |  | Drug metabolism [6]: metabolite_detected
Oc1ccc([C@H]2OC[C@H]3[C@@H]2CO[C@H]3c2ccc3c(c2)OCO3)cc1O | metabolite_detected | metabolite_detected | 9.4 nmol/min | 0.19 nmol/min | 0.38 nmol/min | metabolite_detected | metabolite_detected | 4.1 µM | 9.9 µM | 0.55 nmol/min/mg | 0.28 nmol/min/mg | 2.9 µM | 4.4 nmol/min/mg | 16.8 µM | Vmax [18]: 1.9 nmol/min/mg
Oc1ccc([C@@H]2OC[C@H]3[C@@H]2CO[C@@H]3c2ccc3c(c2)OCO3)cc1O | metabolite_detected | metabolite_detected | 9.4 nmol/min | 0.19 nmol/min | 0.38 nmol/min | metabolite_detected | metabolite_detected | 1.8 µM | 8.6 µM | 0.68 nmol/min/mg | 0.15 nmol/min/mg | 8.7 µM | 0.55 nmol/min/mg | 9.9 µM | Drug metabolism [21]: metabolite_detected; Drug metabolism [22]: metabolite_detected
